Source: US20030212013A1, “Use of amp kinase activators for treatment type 2 diabetes and insulin resistance” (priority 2002, published 2003)
Where “and” joins values, the source holds several entries; their conditions need not be identical. Equal values may be shown once.

How the values were obtained:
AMPK [1] = settings: analogues of 5'-AMP; cited from earlier work
[2] = Muscle glycogen and food intake after five daily AICAR injections; format: in vivo, rat; settings: 24 hrs following the last of five daily AICAR injections; control 43±2
Description: To determine the effect of chronic activation of AMPK, rats were injected (between 8 and 10 am.) subcutaneously with AICAR (1 mg/g body weight) or saline vehicle for five days in succession. This dose was shown in preliminary experiments to increase ZMP levels in the muscle to 0.57±0.06 μmol/g after 15 min, to 0.79±0.06 μmol/g after 60 min, to 0.69±0.06 μmol/g after 90 min, and to 0.60±0.06 μmol/g after 120 minutes (n=3 at each time point). Beginning with the first injection, controls were pair fed with AICAR-injected rats. Saline injected controls ate 17±1 g and AICAR injected rats ate 18±1 g of food during the 24 hour period prior to blood and tissue collection. […] Muscles were kept under liquid nitrogen until analyzed.
(§1) Muscles from rats killed 22-25 hours following the fifth AICAR injection were analyzed for glycogen and GLUT4. […] Proteins of these homogenates were separated by SDS-PAGE using 10% resolving gels (Tris-HCl ready gels, BIO-RAD, Hercules, Calif.). […] Relative amounts of GLUT4 were then quantified using a Hewlett Packard ScanJet 6200C and SigmaGel software (SPSS, Inc, Chicago, Ill.). Total intensity of GLUT4 spots on the developed hyperfilm was expressed as a fraction of intensity shown by a GLUT4 standard run on the same gel. […]

AMPK [3] = assay: AMPK activity in muscles of rats following AICAR injection; format: in vivo, rat; settings: for AMPK activity increase vs saline: 1 hour following AICAR 1 mg/g injection
Text: (§2) All procedures were approved by the Institutional Animal Care and Use Committee. Male Sprague-Dawley rats weighing 197±5 grams (Sasco, Wilmington, Mass. 01887) were housed in individual cages in a temperature (22-25 C.) and light-controlled (12:12-h light-dark cycle) room and were given food (Harlan Teklad rodent diet, Madison, Wis.) and water ad libitum. To determine acute in vivo effects of AICAR, a jugular catheter was installed and exteriorized on the back of the neck three days prior to the day of the experiment. This catheter was implanted for the purpose of allowing rapid anesthesia of the rat and rapid blood and tissue collection. Rats were then given AICAR (1 mg/g body weight) subcutaneously in sterile 0.9% NaCl or were given 0.9% NaCl (n=7 in each group). One hour following the subcutaneous injection of AICAR, rats were anesthetized by intravenous injection of pentobarbital (4.8 mg/100 g body weight). The epitrochlearis and gastrocnemius/plantaris muscles were quickly removed and rapidly frozen with stainless steel clamps at liquid nitrogen temperature. Blood was collected via the abdominal aorta and a perchloric acid extract was prepared (0.5 ml blood to 2.0 ml 10% HClO4), neutralized and utilized for analysis of glucose and lactate.
(§3) Muscles from rats killed 1 hour following injection of AICAR or saline were analyzed for AMPK, citrate-dependence of acetyl-CoA carboxylase, malonyl-CoA, glycogen, ZMP, ZTP, ATP, and ADP. Hassid, W Z. & S. Abraham Methods Enzymol. 3:35-36 (1957); McGarry, J. D. et al. J. Biol. Chem. 253:[…] (1978). Blood glucose and lactate were measured by enzymatic techniques. Bergmeyer, H. U., et al. D-Glucose determination with hexokinase and glucose-phosphate dehydrogenase. In: Methods of Enzymatic Analysis, edited by H. U. Bergmeyer. New York: Academic, 1196-1201 (1974); Gutmann I., & A. W. Wahlefeld. L-(+)-Lactate. Determination with lactate dehydrogenase and NAD. In: Methods of Enzymatic Analysis, edited by H. U. Bergmeyer. New York: Academic, 1464-1468 (1974).
Referring to FIG. 1, the AMPK activity in epitrochlearis and gastrocnemius/plantaris muscles of rats 1 hour following injection with 1 mg/g body weight AICAR or with saline is shown. Values are means ±SEM. […] AMPK activity was increased 2.4 fold in gastrocnemius/plantaris muscles and 4 fold in the epitrochlearis muscles 1 hour following the AICAR injection.

GLUT4 = assay: Total GLUT4 protein (Western blot) in muscles after chronic AICAR injection; format: in vivo, rat
Description: This dose was shown in preliminary experiments to increase ZMP levels in the muscle to 0.57±0.06 μmol/g after 15 min, to 0.79±0.06 μmol/g after 60 min, to 0.69±0.06 μmol/g after 90 min, and to 0.60±0.06 μmol/g after 120 minutes (n=3 at each time point). Beginning with the first injection, controls were pair fed with AICAR-injected rats. Saline injected controls ate 17±1 g and AICAR injected rats ate 18±1 g of food during the 24 hour period prior to blood and tissue collection. Rats were anesthetized by intraperitoneal injection of pentobarbital (22-25 hrs following the last AICAR injection) and epitrochlearis, and gastrocnemius/plantaris muscles were collected and frozen as described above. Muscles were kept under liquid nitrogen until analyzed.
as §1, with “GLUT4. For GLUT4 measurement muscle was ground to powder under liquid nitrogen. See Etgen, G. J., et al. Am. J. Physiol.” for “GLUT4.”

[4] = Tissue and blood metabolites of rats after acute AICAR injection; format: in vivo, rat; settings: AICAR 1 mg/g s.c., 60 minutes following injection, mean ± SEM n=7
Text: as §2, §3

acetyl-CoA carboxylase = assay: Citrate dependence of acetyl-CoA carboxylase in muscles of AICAR-injected rats; format: in vivo, rat; settings: 1 hour following AICAR 1 mg/g
Text: as §2
Muscles from rats killed 1 hour following injection of AICAR or saline were analyzed for AMPK, citrate-dependence of acetyl-CoA carboxylase, malonyl-CoA, glycogen, ZMP, ZTP, ATP, and ADP. Hassid, W Z. & S. Abraham Methods Enzymol. […] Blood glucose and lactate were measured by enzymatic techniques. […]
Referring to FIG. 2, the citrate dependence of acetyl-CoA carboxylase in gastrocnemius/plantaris muscles of rats 1 hour following injection with AICAR (1 mg/g body weight) or saline is illustrated. Standard errors were determined but are not shown. […] Because of the limited amount of tissue, the entire citrate activation curve could not be determined for epitrochlearis muscle, but the activity of ACC at a physiological concentration of citrate (0.2 mM) was reduced from 0.50±0.10 nmol/g/min to 0.10±0.03 nmol/g/min.

[5] = AICAR 0.25 mg/g body weight; normal (C57/BJ6), insulin deficient diabetic (C57/BJ6STZ) and insulin resistant diabetic (KKAy) mice; cited from earlier work
[6] = Preliminary time course of muscle ZMP after AICAR injection; format: in vivo, rat; settings: AICAR 1 mg/g s.c., n=3, preliminary experiments
Description: (§4) To determine the effect of chronic activation of AMPK, rats were injected (between 8 and 10 am.) subcutaneously with AICAR (1 mg/g body weight) or saline vehicle for five days in succession. This dose was shown in preliminary experiments to increase ZMP levels in the muscle to 0.57±0.06 μmol/g after 15 min, to 0.79±0.06 μmol/g after 60 min, to 0.69±0.06 μmol/g after 90 min, and to 0.60±0.06 μmol/g after 120 minutes (n=3 at each time point). Beginning with the first injection, controls were pair fed with AICAR-injected rats. Saline injected controls ate 17±1 g and AICAR injected rats ate 18±1 g of food during the 24 hour period prior to blood and tissue collection. Rats were anesthetized by intraperitoneal injection of pentobarbital (22-25 hrs following the last AICAR injection) and epitrochlearis, and gastrocnemius/plantaris muscles were collected and frozen as described above. Muscles were kept under liquid nitrogen until analyzed.

hexokinase = assay: Hexokinase activity in muscles after 5 days of AICAR injections; format: in vivo, rat; settings: 5 days AICAR 1 mg/g/d, both epitrochlearis and gastrocnemius/plantaris, p<0.001
Description: as §4
Hexokinase activity was determined spectrophotometrically at 30 C on 700×g supernatants of the same homogenate as was used for GLUT4 measurement Uyeda, K. & E. Racker, J Biol Chem 240:4682-4688 (1965).

[7] = Tolerability of daily AICAR injections; format: in vivo, rat; settings: rats 197±5 grams, 1 mg/g body weight daily
Description: ATP and ADP were not influenced by the injection with AICAR. ZTP increased from non-detectable levels to 1.2 μmol/g. […] Muscle glycogen and liver glycogen were not acutely influenced 60 minutes following a single injection of AICAR.

[8] = resting rats injected with AICAR

## Nc1ncnc2c1ncn2[C@@H]1O[C@H](COP(N)(=O)O)[C@@H](O)[C@H]1O [adenosine 5′-phosphoramidate]
AMPK [1]
  Potency of AMPK activation in vitro: more potently

## NC(=O)c1ncn([C@@H]2O[C@H](COP(=O)(O)O)[C@@H](O)[C@H]2O)c1N [ZMP]
AMPK [1]
  Potency of AMPK activation in vitro: less potently

## Nc1ncnc2c1ncn2[C@@H]1O[C@H](COP(O)(O)=S)[C@@H](O)[C@H]1O [adenosine-5′-thiomonophosphate]
AMPK [1]
  Potency of AMPK activation in vitro: more potently

## Nc1ncnc2c([C@@H]3O[C@H](COP(=O)(O)O)[C@@H](O)[C@H]3O)[nH]nc12 [Formycin A 5′-monophosphate]
AMPK [1]
  Potency of AMPK activation in vitro: less potently

## NC(=O)c1ncn([C@@H]2O[C@H](CO)[C@@H](O)[C@H]2O)c1N [AICAR, 5-aminoimidazole-4-carboxamide ribonucleoside]
[2]
  Gastrocnemius/plantaris glycogen: 87±4 μmol glucose units/g
AMPK [3]; epitrochlearis muscles
  AMPK activity increase vs saline: 4 fold
AMPK [3]; gastrocnemius/plantaris muscles
  AMPK activity increase vs saline: 2.4 fold
AMPK [3]; [8]
  Duration of increase in muscle AMPK activity: at least two
  Time to increase in muscle AMPK activity after injection: ≤ 15 min
GLUT4; AICAR 1 mg/g/d for five days, vs saline, p<0.001 epitrochlearis, p<0.01 gastrocnemius
  GLUT4 in epitrochlearis and gastrocnemius/plantaris: marked increases
GLUT4; larger rats (350-450 grams), AICAR 0.5 mg/g body weight, n=5/group, control 0.32±0.05, preliminary experiments
  Total GLUT4: 0.76±0.08 arbitrary units
[4]; gastrocnemius/plantaris
  Muscle ADP: 0.97 ± 0.02 µmol/g
  Muscle ATP: 7.6 ± 0.1 µmol/g
  Muscle Glycogen: 44 ± 4 µmol/g
  Muscle Malonyl-CoA: 0.6 ± 0.1 nmol/g
  Muscle ZMP: 0.91 ± 0.02 µmol/g
  Muscle ZTP: 1.2 µmol/g and 1.18 ± 0.09 µmol/g
[4]
  Blodd Glucose: 5.6 ± 0.6 mM
  Blood Lactate: 6.8 ± 0.5 mM
  Liver Glycogen: 344 ± 44 µmol/g
acetyl-CoA carboxylase; epitrochlearis, saline 0.50±0.10
  Activity of ACC at physiological citrate (0.2 mM): 0.10±0.03 nmol/g/min
acetyl-CoA carboxylase; gastrocnemius/plantaris, saline 3.1±0.1
  ACC citrate activation constant (Ka): 13.0 ± 0.3 mM
acetyl-CoA carboxylase; gastrocnemius/plantaris, saline 60.1±1.3
  ACC maximal velocity (Vmax) as a function of citrate concentration: 32.4 ± 1.3 nmol/g/min
[5]
  Duration of acute decrease in blood glucose: 4 to 6 h
[6]; after 15 min
  ZMP level in muscle: 0.57 ± 0.06 µmol/g
[6]; after 60 min
  ZMP level in muscle: 0.79 ± 0.06 µmol/g
[6]; after 90 min
  ZMP level in muscle: 0.69 ± 0.06 µmol/g
[6]; after 120 minutes
  ZMP level in muscle: 0.60 ± 0.06 µmol/g
hexokinase
  Hexokinase activity increase over control values: approximately 2.8 fold
[7]
  Tolerance of injections: no apparent discomfort
